The target of experiment [1] is T1, EIF2AK3 (PERK) catalytic domain (amino acids 536-1116) (Homo sapiens, UniProt Q9NZJ5).
T1 construct: EIF2AK3 (PERK) catalytic domain (amino acids 536-1116)
T1 sequence (Q9NZJ5 536-1116): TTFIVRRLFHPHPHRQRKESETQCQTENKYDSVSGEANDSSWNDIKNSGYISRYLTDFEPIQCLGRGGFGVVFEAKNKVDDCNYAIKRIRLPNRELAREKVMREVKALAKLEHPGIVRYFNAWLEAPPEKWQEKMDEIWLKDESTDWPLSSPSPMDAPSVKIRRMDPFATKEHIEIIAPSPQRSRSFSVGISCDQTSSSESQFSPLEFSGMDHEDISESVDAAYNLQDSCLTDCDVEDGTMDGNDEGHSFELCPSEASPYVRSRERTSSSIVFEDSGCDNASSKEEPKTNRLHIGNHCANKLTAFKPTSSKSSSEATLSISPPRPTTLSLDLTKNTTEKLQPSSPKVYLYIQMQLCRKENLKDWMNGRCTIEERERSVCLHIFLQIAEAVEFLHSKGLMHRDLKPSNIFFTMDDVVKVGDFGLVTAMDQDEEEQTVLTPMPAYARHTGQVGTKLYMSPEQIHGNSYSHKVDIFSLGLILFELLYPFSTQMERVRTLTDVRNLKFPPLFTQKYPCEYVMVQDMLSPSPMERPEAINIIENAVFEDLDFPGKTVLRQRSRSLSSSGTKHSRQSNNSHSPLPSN
Kind of experiment: PERK in vitro activity assay (isolated), TR-FRET kinase assay. To be noted: isolated PERK enzyme, 1.5 μM ATP; read-out: Biochemical IC50. It counts as biochemical. The gist of the method: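 TR-FRET read-out: after EDTA stop (10 mM final), Tb-labelled phospho-eIF2a antibody (2 nM) for 90 min; IC50 via 4-parameter nonlinear fit. Reaction: PERK aa 536-1116, GFP-eIF2a 100-200 nM, HEPES pH 7.5 with MgCl2/EGTA/Brij-35, 45 min, room temperature, started by enzyme.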

For experiment [2], the system named is GFP-eIF2α in HEK293 cells. Kind of experiment: PERK cellular assay, TR-FRET in HEK293-EGFP-eIF2a cells after tunicamycin-induced ER stress. Type of experiment: cell-based. As to conditions: HEK293-EGFP-eIF2a cells, tunicamycin 2 hours, read-out: Cellular eIF2α IC50. The gist of the method:
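Compounds were added 30 min before a 2 h tunicamycin ([…]) challenge of lentivirally made GFP-eIF2α HEK293 cells, 5000/well; lysate TR-FRET ratio was the read-out.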

Results on 24 compounds are retold here after patent US20220356186A1, “PERK INHIBITING PYRROLOPYRIMIDINE COMPOUNDS” (HiberCell, Inc., priority 2019, published 2022).

Like-named read-outs stand apart in the source and are kept apart here.

The IC50 is the concentration needed to halve the response being measured. `CCc1cccc(C(O)C(=O)Nc2ccc(-c3cn(C)c4nc(C)nc(N)c34)c(F)c2)c1` (stereo not drawn) [Example 75, N-(4-(4-amino-2,7-dimethyl-7H-pyrrolo[2,3-d]pyrimidin-5-yl)-3-fluorophenyl)-2-(3-ethylphenyl)-2-hydroxyacetamide]: the figures for the IC50 in experiment [1] and in experiment [2] were 51 to 100 nM and 1000 to 2000 nM, respectively.

Take `CCc1cccc(C(O)C(=O)Nc2ccc(-c3cn(C)c4nc(C)nc(N)c34)c(F)c2)c1` (stereo not drawn) [Example 76, N-(4-(4-amino-2,7-dimethyl-7H-pyrrolo[2,3-d]pyrimidin-5-yl)-3-fluorophenyl)-2-(3-ethylphenyl)-2-hydroxyacetamide]: the IC50 in experiment [1] and in experiment [2] was 1 to 25 nM in each case.

`Cc1nc(N)c2c(-c3ccc(NC(=O)C(O)c4ccccc4C(F)(F)F)cc3F)cn(C)c2n1` (stereo not drawn) [Example 77, N-(4-(4-amino-2,7-dimethyl-7H-pyrrolo[2,3-d]pyrimidin-5-yl)-3-fluorophenyl)-2-hydroxy-2-(2-(trifluoromethyl)phenyl)acetamide]: the IC50 in experiment [1] lay in the range of 26 to 50 nM; in experiment [2] (Homo sapiens, HEK293, 2 h), 501 to 1000 nM.

For the compound `Cc1nc(N)c2c(-c3ccc(NC(=O)C(O)c4cccc(C(F)(F)F)c4)cc3F)cn(C)c2n1` (stereo not drawn) [Example 78, N-(4-(4-amino-2,7-dimethyl-7H-pyrrolo[2,3-d]pyrimidin-5-yl)-3-fluorophenyl)-2-hydroxy-2-(3-(trifluoromethyl)phenyl)acetamide], the IC50 in experiment [1] lay within 1 to 25 nM; in experiment [2] (Homo sapiens, HEK293, 2 h), 1 to 25 nM.

Take `Cc1nc(N)c2c(-c3ccc(NC(=O)C(O)c4cccc(F)c4)cc3F)cn(C)c2n1` (stereo not drawn) [Example 79, N-(4-(4-amino-2,7-dimethyl-7H-pyrrolo[2,3-d]pyrimidin-5-yl)-3-fluorophenyl)-2-(3-fluorophenyl)-2-hydroxyacetamide]: the figures for the IC50 in experiment [1] and in experiment [2] were 51 to 100 nM and 501 to 1000 nM, respectively.

Turning to `Cc1nc(N)c2c(-c3ccc(NC(=O)C(O)c4cccc(F)c4)cc3F)cn(C)c2n1` (stereo not drawn) [Example 80, N-(4-(4-amino-2,7-dimethyl-7H-pyrrolo[2,3-d]pyrimidin-5-yl)-3-fluorophenyl)-2-(3-fluorophenyl)-2-hydroxyacetamide], the IC50 in experiment [1] lay within 1 to 25 nM; in experiment [2] it was 26 to 50 nM.

For the compound `Cc1nc(N)c2c(-c3ccc(NC(=O)C(O)c4cccc(Cl)c4)cc3F)cn(C)c2n1` (stereo not drawn) [Example 81, N-(4-(4-amino-2,7-dimethyl-7H-pyrrolo[2,3-d]pyrimidin-5-yl)-3-fluorophenyl)-2-(3-chlorophenyl)-2-hydroxyacetamide], the IC50 in experiment [1] was 51 to 100 nM; in experiment [2] it was 101 to 250 nM.

With `Cc1nc(N)c2c(-c3ccc(NC(=O)C(O)c4cccc(Cl)c4)cc3F)cn(C)c2n1` (stereo not drawn) [Example 82, N-(4-(4-amino-2,7-dimethyl-7H-pyrrolo[2,3-d]pyrimidin-5-yl)-3-fluorophenyl)-2-(3-chlorophenyl)-2-hydroxyacetamide], the IC50 in experiment [1] and in experiment [2] was 1 to 25 nM throughout.

In the case of `Cc1nc(N)c2c(-c3ccc(NC(=O)C(O)c4cc(F)cc(F)c4)cc3F)cn(C)c2n1` (stereo not drawn) [Example 83, N-(4-(4-amino-2,7-dimethyl-7H-pyrrolo[2,3-d]pyrimidin-5-yl)-3-fluorophenyl)-2-(3,5-difluorophenyl)-2-hydroxyacetamide], the IC50 in experiment [1] and in experiment [2] was 1 to 25 nM throughout.

`Cc1nc(N)c2c(-c3ccc(NC(=O)C(O)c4cc(F)cc(F)c4)cc3F)cn(C)c2n1` (stereo not drawn) [Example 84, N-(4-(4-amino-2,7-dimethyl-7H-pyrrolo[2,3-d]pyrimidin-5-yl)-3-fluorophenyl)-2-(3,5-difluorophenyl)-2-hydroxyacetamide]: the results for the IC50 in experiment [1] and in experiment [2] were 51 to 100 nM and 101 to 250 nM, respectively.

Take `Cc1cc(F)cc(C(O)C(=O)Nc2ccc(-c3cn(C)c4nc(C)nc(N)c34)c(F)c2)c1` (stereo not drawn) [Example 85, N-(4-(4-amino-2,7-dimethyl-7H-pyrrolo[2,3-d]pyrimidin-5-yl)-3-fluorophenyl)-2-(3-fluoro-5-methylphenyl)-2-hydroxyacetamide]: the IC50 in experiment [1] and in experiment [2] was 1 to 25 nM throughout.

For the compound `Cc1cc(F)cc(C(O)C(=O)Nc2ccc(-c3cn(C)c4nc(C)nc(N)c34)c(F)c2)c1` (stereo not drawn) [Example 86, N-(4-(4-amino-2,7-dimethyl-7H-pyrrolo[2,3-d]pyrimidin-5-yl)-3-fluorophenyl)-2-(3-fluoro-5-methylphenyl)-2-hydroxyacetamide], the IC50 in experiment [1] fell in the range of 1 to 25 nM; in experiment [2] it was 51 to 100 nM.

As to `Cc1nc(N)c2c(-c3ccc(NC(=O)C(O)c4cc(F)cc(C(F)(F)F)c4)cc3F)cn(C)c2n1` (stereo not drawn) [Example 87, N-(4-(4-amino-2,7-dimethyl-7H-pyrrolo[2,3-d]pyrimidin-5-yl)-3-fluorophenyl)-2-(3-fluoro-5-(trifluoromethyl)phenyl)-2-hydroxyacetamide], the IC50 lay within 1 to 25 nM in experiment [1] and 51 to 100 nM in experiment [2].

Take `Cc1nc(N)c2c(-c3ccc(NC(=O)C(O)c4cc(F)cc(C(F)(F)F)c4)cc3F)cn(C)c2n1` (stereo not drawn) [Example 88, N-(4-(4-amino-2,7-dimethyl-7H-pyrrolo[2,3-d]pyrimidin-5-yl)-3-fluorophenyl)-2-(3-fluoro-5-(trifluoromethyl)phenyl)-2-hydroxyacetamide]: the results for the IC50 in experiment [1] and in experiment [2] were 26 to 50 nM and 251 to 500 nM, respectively.

For `Cc1nc(N)c2c(-c3ccc(NC(=O)C(O)c4cccc(F)c4)c(F)c3)cn(C)c2n1` (stereo not drawn) [Example 89, N-(4-(4-amino-2,7-dimethyl-7H-pyrrolo[2,3-d]pyrimidin-5-yl)-2-fluorophenyl)-2-(3-fluorophenyl)-2-hydroxyacetamide], the results for the IC50 in experiment [1] and in experiment [2] were 251 to 500 nM and 2000 to 3000 nM, respectively.

As for `Cc1nc(N)c2c(-c3ccc(NC(=O)C(O)c4cccc(F)c4)c(F)c3)cn(C)c2n1` (stereo not drawn) [Example 90, N-(4-(4-amino-2,7-dimethyl-7H-pyrrolo[2,3-d]pyrimidin-5-yl)-2-fluorophenyl)-2-(3-fluorophenyl)-2-hydroxyacetamide], the IC50 in experiment [1] is 1 to 25 nM; in experiment [2], 26 to 50 nM.

On to `Cc1nc(N)c2c(-c3ccc(NC(=O)C(O)c4cccc(F)c4)cc3Cl)cn(C)c2n1` (stereo not drawn) [Example 91, N-(4-(4-amino-2,7-dimethyl-7H-pyrrolo[2,3-d]pyrimidin-5-yl)-3-chlorophenyl)-2-(3-fluorophenyl)-2-hydroxyacetamide], for which the IC50 in experiment [1] lay in the range of 101 to 250 nM; in experiment [2], 501 to 1000 nM.

`Cc1nc(N)c2c(-c3ccc(NC(=O)C(O)c4cccc(F)c4)cc3Cl)cn(C)c2n1` (stereo not drawn) [Example 92, N-(4-(4-amino-2,7-dimethyl-7H-pyrrolo[2,3-d]pyrimidin-5-yl)-3-chlorophenyl)-2-(3-fluorophenyl)-2-hydroxyacetamide]: the IC50 in experiment [1] was in the range of 1 to 25 nM; in experiment [2] it was 51 to 100 nM.

Consider `Cc1nc(N)c2c(-c3ccc(NC(=O)C(O)c4ccccc4C)cc3Cl)cn(C)c2n1` (stereo not drawn) [Example 93, N-(4-(4-amino-2,7-dimethyl-7H-pyrrolo[2,3-d]pyrimidin-5-yl)-3-chlorophenyl)-2-hydroxy-2-(o-tolyl)acetamide], for which the IC50 was 501 to 1000 nM in experiment [1] and 2000 to 3000 nM in experiment [2].

Turning to `Cc1nc(N)c2c(-c3ccc(NC(=O)C(O)c4ccccc4C)cc3Cl)cn(C)c2n1` (stereo not drawn) [Example 94, N-(4-(4-amino-2,7-dimethyl-7H-pyrrolo[2,3-d]pyrimidin-5-yl)-3-chlorophenyl)-2-hydroxy-2-(o-tolyl)acetamide], the IC50 is 1 to 25 nM in experiment [1] and 51 to 100 nM in experiment [2].

For the compound `Cc1cccc(C(O)C(=O)Nc2ccc(-c3cn(C)c4nc(C)nc(N)c34)c(Cl)c2)c1` (stereo not drawn) [Example 95, N-(4-(4-amino-2,7-dimethyl-7H-pyrrolo[2,3-d]pyrimidin-5-yl)-3-chlorophenyl)-2-hydroxy-2-(m-tolyl)acetamide], the IC50 was in the range of 51 to 100 nM in experiment [1] and 251 to 500 nM in experiment [2].

Consider `Cc1cccc(C(O)C(=O)Nc2ccc(-c3cn(C)c4nc(C)nc(N)c34)c(Cl)c2)c1` (stereo not drawn) [Example 96, N-(4-(4-amino-2,7-dimethyl-7H-pyrrolo[2,3-d]pyrimidin-5-yl)-3-chlorophenyl)-2-hydroxy-2-(m-tolyl)acetamide], for which the IC50 in experiment [1] and in experiment [2] was 1 to 25 nM throughout.

As to `CCc1cccc(C(O)C(=O)Nc2ccc(-c3cn(C)c4nc(C)nc(N)c34)c(Cl)c2)c1` (stereo not drawn) [Example 97, N-(4-(4-amino-2,7-dimethyl-7H-pyrrolo[2,3-d]pyrimidin-5-yl)-3-chlorophenyl)-2-(3-ethylphenyl)-2-hydroxyacetamide], the IC50 in experiment [1] and in experiment [2] was 1 to 25 nM in each case.

With `CCc1cccc(C(O)C(=O)Nc2ccc(-c3cn(C)c4nc(C)nc(N)c34)c(Cl)c2)c1` (stereo not drawn) [Example 98, N-(4-(4-amino-2,7-dimethyl-7H-pyrrolo[2,3-d]pyrimidin-5-yl)-3-chlorophenyl)-2-(3-ethylphenyl)-2-hydroxyacetamide], the IC50 lay in the range of 51 to 100 nM in experiment [1] and 251 to 500 nM in experiment [2].
